Results from publication PMC7921015, “Spatiotemporal GLP-1 and GIP receptor signaling and trafficking/recycling dynamics induced by selected receptor mono- and dual-agonists” (Molecular Metabolism, 2021).

Assays:
human GIPR [1] = target: T1, human GIPR (Homo sapiens, UniProt P48546); assay: β-arrestin 2 recruitment BRET assay, GIPR; type: cell-based; settings: HEK293T, GIPR-GFP + β-arrestin2-RLUC8, BRET, +iAUC 30 min
T1 sequence (P48546 22-466): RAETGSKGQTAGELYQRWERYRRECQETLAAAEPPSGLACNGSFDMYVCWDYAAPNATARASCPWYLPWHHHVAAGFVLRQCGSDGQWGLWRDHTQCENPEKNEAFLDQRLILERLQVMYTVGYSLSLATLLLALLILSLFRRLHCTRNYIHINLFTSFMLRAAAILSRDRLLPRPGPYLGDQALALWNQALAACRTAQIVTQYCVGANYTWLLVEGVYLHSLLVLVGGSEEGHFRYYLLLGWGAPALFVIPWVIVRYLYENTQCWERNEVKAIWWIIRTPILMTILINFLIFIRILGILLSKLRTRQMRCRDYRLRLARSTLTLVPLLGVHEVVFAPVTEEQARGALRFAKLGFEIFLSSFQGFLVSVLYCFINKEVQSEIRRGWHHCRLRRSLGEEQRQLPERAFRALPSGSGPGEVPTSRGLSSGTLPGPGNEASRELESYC
Protocol: (§1) The cells were seeded (700,000 cells/well) in 6-well plates and incubated to ∼70% confluency in complete media supplemented with 10% FBS and 1% Pen-Strep. […] Baseline measurements were taken after 5 min of incubation with coelenterazine-h or NanoGlo. The cells were then treated with a vehicle or the respective agonists. […] The temporal data of the vehicle-corrected agonist measurement was then normalized to the baseline reading of the same well. The first BRET reading following treatment with agonist/vehicle was the subsequent measurement after the zero time point. Positive or negative incremental areas under the curves (+iAUC/-iAUC) were calculated where noted. Each experiment was independently performed at least three times, with at least two technical replicates for each group.
(§2) Co-localization of β-arrestin1/2-RLUC8 with GLP-1R-GFP or GIPR-GFP was assessed.
(§3) Data are represented as means ± S.E.M. Each experiment was independently conducted at least three times, each with at least two technical replicates. […] Dose responses were fitted using non-linear regression. pEC50 and EC50 values were calculated using GraphPad Prism 8.0 (GraphPad, San Diego, CA, USA). Statistical analyses were calculated in GraphPad 8.0 using one-way analysis of variance (ANOVA) and corrected with Tukey's or Bonferroni's multiple comparison test. Differences are considered significant with an adjusted p value < 0.05.

human GIPR [2] = target: T1, human GIPR; assay: β-arrestin 1 recruitment BRET assay, GIPR; type: cell-based
Protocol: as §1, §2, §3

human GIPR [3] = target: T1, human GIPR; assay: cAMP assay (CAMYEL BRET sensor), GIPR; type: cell-based
Protocol: as §1
(§4) CAMYEL, a cAMP sensor using YFP-Epac-RLuc was utilized to quantify cAMP accumulation with the temporal resolution. Then, 500 ng of CAMYEL DNA was co-transfected with 500 ng of DNA of untagged GLP-1R or GIPR per well in a 6-well plate. The experiments were performed in the absence of 3-isobutyl-1-methylxanthine (IBMX).
as §3

human GLP-1R [4] = target: T2, human GLP-1R (Homo sapiens, UniProt P43220); assay: cAMP assay (CAMYEL BRET sensor), GLP-1R; type: cell-based
T2 construct: host or cells: HEK293T
T2 sequence (P43220 24-463): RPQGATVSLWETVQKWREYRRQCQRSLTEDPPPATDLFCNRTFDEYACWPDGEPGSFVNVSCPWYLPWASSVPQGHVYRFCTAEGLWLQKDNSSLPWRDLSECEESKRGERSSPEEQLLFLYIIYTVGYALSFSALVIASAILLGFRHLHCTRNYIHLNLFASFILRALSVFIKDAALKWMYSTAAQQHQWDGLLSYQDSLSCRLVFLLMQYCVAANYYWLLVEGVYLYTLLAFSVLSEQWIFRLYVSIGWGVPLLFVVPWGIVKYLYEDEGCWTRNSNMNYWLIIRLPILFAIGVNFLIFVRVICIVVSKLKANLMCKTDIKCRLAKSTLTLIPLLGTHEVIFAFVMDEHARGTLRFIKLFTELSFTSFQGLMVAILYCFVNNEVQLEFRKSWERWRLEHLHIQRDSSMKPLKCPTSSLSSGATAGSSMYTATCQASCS
Protocol: as §1, §4, §3

human GIPR [5] = target: T1, human GIPR; assay: Gαq (mini-G) recruitment BRET assay, GIPR; type: cell-based; settings: HEK293T, GIPR-GFP + NLuc-mini-G, +iAUC 60 min
human GIPR [6] = target: T1, human GIPR; assay: GPCR internalization assay (loss of BRET with Venus-KRAS), GIPR; type: cell-based; settings: HEK293T, hGIPR-Rluc8 + Venus-KRAS, iAUC 20 min, mean ± SEM, SEM
human GLP-1R [7] = target: T2, human GLP-1R; assay: Endosomal trafficking assay (Venus-Rab5/7/11 co-localization), GLP-1R, HEK293T; type: cell-based; settings: six experiments
Protocol: GPCR endosomal trafficking was assessed by measuring the ligand-stimulated gain in resonance energy transfer between Venus-Rab5/7/11 and hGLP-1R-RLUC8 or hGIPR-RLUC. Then, 100 ng of the respective Venus-Rab subtype DNA and 100 ng of hGLP-1R-RLUC8 or hGIPR-RLUC8 DNA were co-transfected into each well in a 6-well plate.

human GIPR [8] = target: T1, human GIPR; assay: Gαs (mini-G) recruitment BRET assay, GIPR; type: cell-based; settings: HEK293T, GIPR-GFP + NLuc-mini-G, +iAUC 60 min
human GLP-1R [9] = target: T2, human GLP-1R; assay: Gαs (mini-G) recruitment BRET assay, GLP-1R; type: cell-based; settings: HEK-293T, HEK293T, GLP-1R-GFP + NLuc-mini-G, +iAUC 60 min, mean ± SEM, at least 3 experiments
human GLP-1R [10] = target: T2, human GLP-1R; assay: Gαq (mini-G) recruitment BRET assay, GLP-1R; type: cell-based; settings: HEK-293T, HEK293T, GLP-1R-GFP + NLuc-mini-G, +iAUC 60 min, mean ± SEM, at least 3 experiments
human GLP-1R [11] = target: T2, human GLP-1R; assay: GPCR internalization assay (loss of BRET with Venus-KRAS), GLP-1R; type: cell-based; settings: HEK-293T, HEK293T, hGLP-1R-Rluc8 + Venus-KRAS, iAUC 60 min, mean ± SEM, at least 3 experiments, SEM, read-out: Receptor Internalization Emax (% GLP-1)
Human GLP-1R-GFP (human) [12] = target: Human GLP-1R-GFP (human) (UniProt P43220)
Sequence of Human GLP-1R-GFP (human) (P43220 24-463): as above

Human GLP-1R-GFP (human) [13] = target: Human GLP-1R-GFP (human) (UniProt P43220); remark: listed apart in the source

CCCCCCCCCCCCCCCC(=O)NCCCC[C@H](NC(=O)[C@H](CO)NC(=O)[C@@H]1CCCN1C(=O)[C@@H]1CCCN1C(=O)[C@@H]1CCCN1C(=O)[C@H](C)NC(=O)CNC(=O)[C@H](CO)NC(=O)[C@H](CO)NC(=O)[C@@H]1CCCN1C(=O)CNC(=O)CNC(=O)[C@H](C)NC(=O)[C@H](CC(C)C)NC(=O)[C@H](CC(C)C)NC(=O)[C@H](Cc1c[nH]c2ccccc12)NC(=O)[C@H](CC(N)=O)NC(=O)[C@@H](NC(=O)[C@H](Cc1ccccc1)NC(=O)[C@H](CCC(=O)O)NC(=O)C(C)(C)NC(=O)[C@H](C)NC(=O)[C@H](C)NC(=O)[C@H](CCC(N)=O)NC(=O)[C@H](CCCCN)NC(=O)[C@H](CC(=O)O)NC(=O)[C@H](CC(C)C)NC(=O)[C@H](Cc1ccc(O)cc1)NC(=O)[C@@H](NC(=O)[C@H](CO)NC(=O)[C@H](Cc1ccc(O)cc1)NC(=O)[C@H](CC(=O)O)NC(=O)[C@H](CO)NC(=O)[C@@H](NC(=O)[C@H](Cc1ccccc1)NC(=O)[C@@H](NC(=O)CNC(=O)[C@H](CCC(=O)O)NC(=O)C(C)(C)NC(=O)[C@@H](N)Cc1ccc(O)cc1)[C@@H](C)O)[C@@H](C)CC)[C@@H](C)CC)C(C)C)C(N)=O [fatty acyl-GIP]
EC50 (human GIPR [1]; read-out: β-arr2 Recruitment EC50): > 1000 nM | EC50 (human GIPR [2]; read-out: β-arr1 Recruitment EC50; HEK293T, GIPR-GFP + β-arrestin1-RLUC8, BRET, +iAUC 30 min): > 1000 nM | EC50 (human GIPR [3]): 1.34 nM | Emax (human GIPR [3]; HEK-293T, HEK293T transiently expressing untagged GIPR, CAMYEL sensor, no IBMX, +iAUC of 25 min response, 3-parameter fit, mean ± SEM, at least 3 experiments, SEM, read-out: cAMP Emax (% GIP)): 97 ± 2% | EC50 (human GLP-1R [4]): 181 nM

CC[C@H](C)[C@H](NC(=O)[C@H](CC(C)C)NC(=O)[C@H](Cc1c[nH]c2ccccc12)NC(=O)[C@H](CCC(N)=O)NC(=O)[C@@H](NC(=O)[C@H](Cc1ccccc1)NC(=O)[C@H](C)NC(=O)[C@H](CCCCNC(=O)COCCOCCNC(=O)COCCOCCNC(=O)CC[C@H](NC(=O)CCCCCCCCCCCCCCCCCCC(=O)O)C(=O)O)NC(=O)[C@H](CCC(N)=O)NC(=O)[C@H](C)NC(=O)[C@@H](NC(=O)[C@H](CCCCN)NC(=O)[C@H](CC(=O)O)NC(=O)[C@H](CC(C)C)NC(=O)C(C)(C)NC(=O)[C@@H](NC(=O)[C@H](CO)NC(=O)[C@H](Cc1ccc(O)cc1)NC(=O)[C@H](CC(=O)O)NC(=O)[C@H](CO)NC(=O)[C@@H](NC(=O)[C@H](Cc1ccccc1)NC(=O)[C@@H](NC(=O)CNC(=O)[C@H](CCC(=O)O)NC(=O)C(C)(C)NC(=O)[C@@H](N)Cc1ccc(O)cc1)[C@@H](C)O)[C@@H](C)O)[C@@H](C)CC)[C@@H](C)CC)C(C)C)C(=O)N[C@@H](C)C(=O)NCC(=O)NCC(=O)N1CCC[C@H]1C(=O)N[C@@H](CO)C(=O)N[C@@H](CO)C(=O)NCC(=O)N[C@@H](C)C(=O)N1CCC[C@H]1C(=O)N1CCC[C@H]1C(=O)N1CCC[C@H]1C(=O)N[C@@H](CO)C(N)=O [tirzepatide, reference compound]
EC50 (human GIPR [5]; mean ± SEM, SEM, read-out: Gαq Recruitment pEC50 (converted)): 132 nM | Gαq Recruitment Emax (% GIP) (human GIPR [5]; mean ± SEM, at least 3 experiments, listed as Dual Agonist (Tirzepatide), SEM): 71 ± 1 [-29]*^# % GIP | EC50 (human GIPR [5]; read-out: Gαq Recruitment EC50): 164 nM | Emax (human GIPR [5]; HEK-293T, mean ± SEM, at least 3 experiments, read-out: Gαq Recruitment Emax (% GIP)): 85% | EC50 (human GIPR [1]; mean ± SEM, SEM, read-out: β-arr2 Recruitment pEC50 (converted)): 39.8 nM | EC50 (human GIPR [2]; HEK293T, GIPR-GFP + β-arrestin1-RLUC8, BRET, +iAUC 30 min; read-out: β-arr1 Recruitment EC50): > 1000 nM | EC50 (human GIPR [2]; HEK293T, GIPR-GFP + β-arrestin1-RLUC8, BRET, +iAUC 30 min; read-out: β-arr1 Recruitment pEC50 (converted)): > 1000 nM | EC50 (human GIPR [6]; read-out: Receptor Internalization pEC50 (converted)): 4.68 nM | Emax (human GIPR [6]; HEK-293T, at least 3 experiments, read-out: Receptor Internalization Emax (% GIP)): 18 ± 1% | total GLP-1R Rab5 co-localization, of that elicited by GLP-1 (7–36 amide) (human GLP-1R [7]; 1 μM stimulation, hGLP-1R-Rluc8 + Venus-Rab5 (early endosomes), +iAUC): 13% | co-localization of GLP-1R with Rab7 positive (late) endosomes, of the response of GLP-1 (7–36 amide) (human GLP-1R [7]; hGLP-1R-Rluc8 + Venus-Rab7, +iAUC): 24% | GLP-1R co-localization with Rab11-positive recycling endosomes, decrease vs GLP-1 (7–36 amide) (human GLP-1R [7]; hGLP-1R-Rluc8 + Venus-Rab11, +iAUC): 54% | EC50 (human GIPR [8]; read-out: Gαs Recruitment EC50): 324 nM | Emax (human GIPR [8]; HEK-293T, mean ± SEM, at least 3 experiments, SEM, read-out: Gαs Recruitment Emax (% GIP)): 43 ± 3% | Emax (human GLP-1R [9]): 31% | Emax (human GLP-1R [10]): 17% | Emax (human GLP-1R [11]): 24 ± 4% | EC50 (human GIPR [3]; HEK293T, GIPR, CAMYEL sensor, no IBMX, +iAUC 25 min, read-out: cAMP EC50): 13.3 nM | Emax (human GLP-1R [4]; HEK-293T, HEK293T transiently expressing untagged GLP-1R, CAMYEL sensor, no IBMX, +iAUC of 25 min response, 3-parameter fit, mean ± SEM, at least 3 experiments, SEM): 102 ± 4%

Tirzepatide (peptide)
GLP-1R co-localization with Rab5 early endosomes (BRET of hGLP-1R-Rluc8 with Venus-Rab5, HEK293T), 1 μM, % of GLP-1 (7–36 amide) (Human GLP-1R-GFP (human) [12]): 13% | GLP-1R co-localization with Rab7 late endosomes (BRET of hGLP-1R-Rluc8 with Venus-Rab7, HEK293T), % of GLP-1 (7–36 amide) (Human GLP-1R-GFP (human) [12]): 24% | GLP-1R co-localization with Rab11 recycling endosomes (BRET of hGLP-1R-Rluc8 with Venus-Rab11, HEK293T), decrease against GLP-1 (7–36 amide) (Human GLP-1R-GFP (human) [12]): 54% | GLP-1R internalization Emax, % of GLP-1 (7–36 amide) (loss of BRET between hGLP-1R-Rluc8 and Venus-KRAS, HEK293T) (Human GLP-1R-GFP (human) [13]): 13%
